Data from patent US20050245563A1 (Millennium Pharmaceuticals, Inc., priority 2003, published 2005).
pIC50: −log10 of the molar value.

What follows are compounds tested against T1, human Chk1 (GST-Chk1) (Homo sapiens, UniProt O14757) (assay: Chk1 DELFIA kinase assay (2 nM GST-Chk1, 600 μM ATP)). Conditions: Biotin-GLYRSPSMPEN-amide substrate.
T1 construct: made in house; host or cells: insect cells (baculovirus, Bac-to-Bac)
T1 sequence (O14757 1-476): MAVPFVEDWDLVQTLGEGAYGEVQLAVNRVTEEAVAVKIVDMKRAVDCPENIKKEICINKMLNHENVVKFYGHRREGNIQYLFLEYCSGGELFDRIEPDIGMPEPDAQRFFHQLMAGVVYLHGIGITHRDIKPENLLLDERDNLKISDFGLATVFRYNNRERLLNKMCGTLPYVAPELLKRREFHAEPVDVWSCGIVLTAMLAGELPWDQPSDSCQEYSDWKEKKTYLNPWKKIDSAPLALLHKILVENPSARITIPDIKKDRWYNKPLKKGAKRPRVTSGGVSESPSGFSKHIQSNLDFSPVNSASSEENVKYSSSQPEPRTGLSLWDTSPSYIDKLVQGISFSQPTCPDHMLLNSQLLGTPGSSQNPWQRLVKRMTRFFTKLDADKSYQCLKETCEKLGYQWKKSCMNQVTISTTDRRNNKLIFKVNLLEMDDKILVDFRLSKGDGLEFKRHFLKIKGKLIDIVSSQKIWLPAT
Assay type: biochemical
Procedure: Recombinant human Chk1 was expressed as a fusion protein with glutathione S-transferase at the amino-terminus (GST-Chk1) using standard baculovirus vectors and (Bac-to-Bac®) insect cell expression system purchased from GIBCO™ Invitrogen. Recombinant protein expressed in insect cells was purified using glutathione sepharose (Amersham Biotech) using standard procedures described by the manufacturer.
Chk1 DELFIA® Kinase Assay:
Assays (25 μL) utilized 2 nM GST-Chk1 containing 10 mM Tris, pH 7.5, 20% glycerol, 50 mM sodium chloride (NaCl), 0.01% Surfact-Amps® 20, 1 μM peptide stubstrate (Biotin-GLYRSPSMPEN-amide) (SEQ ID NO: 3), 01.% BSA, 2 mM DTT, 4% DMSO, 600 μM ATP, 10 MM MgCl2 and reacted for 50 minutes at room temperature. Reactions were terminated with 100 μL of Stop buffer containing 1% BSA, 10 mM Tris, pH 8.0, 150 mM NaCl, 100 mM EDTA. Stopped reactions (100 μL) were transferred to 96 well NeutrAvidin plates (Pierce) to capture the biotin-peptide substrate during a 30 minute room temperature incubation. Wells were washed and reacted with 100 μL PerkinElmer Wallac Assay Buffer containing 21.5 ng/ml anti-phospho-Ser216-Cdc25c rabbit polyclonal antibody from Cell Signaling Technology (Beverly, Mass.) and 292 ng/ml europium labeled anti-rabbit-IgG for 1 hour at room temperature. Wells were washed and europium released from the bound antibody by addition of Enhancement Solution (100 μL) (PerkinElmer Wallac) and detected using a Perkin Elmer Wallac Envison™ 2100 multilabel reader using standard manufacturer settings.

pIC50, > 6.00:
Cc1[nH]nc2c1c(=O)n(C[C@H]1CCCNC1)c1ccc(Cl)cc21 [Example 225, 8-Chloro-3-methyl-5S-piperidin-3-ylmethyl-2,5-dihydro-pyrazolo[4,3-c]quinolin-4-one]
COCCc1[nH]nc2c1c(=O)n(C[C@@H]1CCCNC1)c1ccc(Cl)cc21 [Example 226, 8-Chloro-3-(2-methoxy-ethyl)-5R-piperidin-3-ylmethyl-2,5-dihydro-pyrazolo[4,3-c]quinolin-4-one]
COCCc1[nH]nc2c1c(=O)n(C[C@H]1CCCNC1)c1ccc(Cl)cc21 [Example 227, 8-Chloro-3-(2-methoxy-ethyl)-5S-piperidin-3-ylmethyl-2,5-dihydro-pyrazolo[4,3-c]quinolin-4-one]
Cc1[nH]nc2c1c(=O)n(CC1CNC1)c1ccc(Cl)cc21 [Example 228, 5-Azetidin-3-ylmethyl-8-chloro-3-methyl-2,5-dihydro-pyrazolo[4,3-c]quinolin-4-one]
Cc1[nH]nc2c1c(=O)n(CCC(C)(C)N)c1ccc(Cl)cc21 [Example 229, 5-(3-Amino-3-methyl-butyl)-8-chloro-3-methyl-2,5-dihydro-pyrazolo[4,3-c]quinolin-4-one]
Cc1[nH]nc2c1c(=O)n(CC(=O)C1CCCN1)c1ccc(Cl)cc21 (stereo not drawn) [Example 230, 8-Chloro-3-methyl-5-(2-oxo-2-pyrrolidin-2-yl-ethyl)-2,5-dihydro-pyrazolo[4,3-c]quinolin-4-one]
CNCCCn1c(=O)c2c(C)[nH]nc2c2cc(Cl)ccc21 [Example 231, 8-Chloro-3-methyl-5-(3-methylamino-propyl)-2,5-dihydro-pyrazolo[4,3-c]quinolin-4-one]
CNCCCn1c(=O)c2c(C)[nH]nc2c2cc(I)ccc21 [Example 234, 8-Iodo-3-methyl-5-(3-methylamino-propyl)-2,5-dihydro-pyrazolo[4,3-c]quinolin-4-one]
CNCCCn1c(=O)c2c(C)[nH]nc2c2cc(C)ccc21 [Example 235, 3,8-Dimethyl-5-(3-methylamino-propyl)-2,5-dihydro-pyrazolo[4,3-c]quinolin-4-one]
CNCCCn1c(=O)c2c(CCOC)[nH]nc2c2cc(C)ccc21 [Example 236, 3-(2-Methoxy-ethyl)-8-methyl-5-(3-methylamino-propyl)-2,5-dihydro-pyrazolo[4,3-c]quinolin-4-one]
CNCCCn1c(=O)c2c(CCOC)[nH]nc2c2cc(Cl)ccc21 [Example 237, 8-Chloro-3-(2-methoxy-ethyl)-5-(3-methylamino-propyl)-2,5-dihydro-pyrazolo[4,3-c]quinolin-4-one]
CCNCCCn1c(=O)c2c(C)[nH]nc2c2cc(Cl)ccc21 [Example 238, 8-Chloro-5-(3-ethylamino-propyl)-3-methyl-2,5-dihydro-pyrazolo[4,3-c]quinolin-4-one]
CCCNCCCn1c(=O)c2c(C)[nH]nc2c2cc(Cl)ccc21 [Example 239, 8-Chloro-3-methyl-5-(3-propylamino-propyl)-2,5-dihydro-pyrazolo[4,3-c]quinolin-4-one]
Cc1[nH]nc2c1c(=O)n(CCCNCc1cccs1)c1ccc(Cl)cc21 [Example 242, 8-Chloro-3-methyl-5-{3-[(thiophen-2-ylmethyl)-amino]-propyl}-2,5-dihydro-pyrazolo[4,3-c]quinolin-4-one]
Cc1[nH]nc2c1c(=O)n(CCCNCc1ccc[nH]1)c1ccc(Cl)cc21 [Example 243, 8-Chloro-3-methyl-5-{3-[(1H-pyrrol-2-ylmethyl)-amino]-propyl}2,5-dihydro-pyrazolo[4,3-c]quinolin-4-one]
Cc1[nH]nc2c1c(=O)n(CCCNCc1ncc[nH]1)c1ccc(Cl)cc21 [Example 244, 8-Chloro-5-{3-[(1H-imidazol-2-ylmethyl)-amino]-propyl}-3-methyl-2,5-dihydro-pyrazolo[4,3-c]quinolin-4-one]
Cc1[nH]nc2c1c(=O)n(CC(O)C1CCCN1)c1ccc(Cl)cc21 (stereo not drawn) [Example 246, 8-Chloro-5-(2-hydroxy-2-pyrrolidin-2-yl-ethyl)-3-methyl-2,5-dihydro-pyrazolo[4,3-c]quinolin-4-one]
CNCC(O)Cn1c(=O)c2c(C)[nH]nc2c2cc(Cl)ccc21 (stereo not drawn) [Example 247, 8-Chloro-5-(2-hydroxy-3-methylamino-propyl)-3-methyl-2,5-dihydro-pyrazolo[4,3-c]quinolin-4-one]
CCNCC(O)CCn1c(=O)c2c(C)[nH]nc2c2cc(Cl)ccc21 (stereo not drawn) [Example 248, 8-Chloro-5-(4-ethylamino-3-hydroxy-butyl)-3-methyl-2,5-dihydro-pyrazolo[4,3-c]quinolin-4-one]
CNCC(O)CCn1c(=O)c2c(C)[nH]nc2c2cc(Cl)ccc21 (stereo not drawn) [Example 249, 8-Chloro-5-(3-hydroxy-4-methylamino-butyl)-3-methyl-2,5-dihydro-pyrazolo[4,3-c]quinolin-4-one]
CCCNCC(O)CCn1c(=O)c2c(C)[nH]nc2c2cc(Cl)ccc21 (stereo not drawn) [Example 250, 8-Chloro-5-(3-hydroxy-4-propylamino-butyl)-3-methyl-2,5-dihydro-pyrazolo[4,3-c]quinolin-4-one]
Cc1[nH]nc2c1c(=O)n(CCCN)c1ccc(OCCCN)cc21 [Example 255, 8-(3-Amino-propoxy)-5-(3-amino-propyl)-3-methyl-2,5-dihydro-pyrazolo[4,3-c]quinolin-4-one]
CCOc1ccc2c(c1)c1n[nH]c(C)c1c(=O)n2CCCN [Example 256, 5-(3-Amino-propyl)-8-ethoxy-3methyl-2,5-dihydro-pyrazolo[4,3-c]quinolin-4-one]
Cc1[nH]nc2c1c(=O)n(CCCN)c1ccc(OCc3ccccc3)cc21 [Example 257, 5-(3-Amino-propyl)-8-benzyloxy-3-methyl-2,5-dihydro-pyrazolo[4,3-c]quinolin-4-one]
CCCOc1ccc2c(c1)c1n[nH]c(C)c1c(=O)n2CCCN [Example 258, 5-(3-Amino-propyl)-3-methyl-8-propoxy-2,5-dihydro-pyrazolo[4,3-c]quinolin-4-one]
Cc1[nH]nc2c1c(=O)n(CCCN)c1ccc(OCC(C)C)cc21 [Example 259, 5-(3-Amino-propyl)-8-isobutoxy-3-methyl-2,5-dihydro-pyrazolo[4,3-c]quinolin-4-one]
Cc1[nH]nc2c1c(=O)n(CCCN)c1ccc(N)cc21 [Example 260, 8-Amino-5-(3-amino-propyl)-3-methyl-2,5-dihydro-pyrazolo[4,3-c]quinolin-4-one]
CC(=O)Nc1ccc2c(c1)c1n[nH]c(C)c1c(=O)n2CCCN [Example 261, N-[5-(3-Amino-propyl)-3-methyl-4-oxo-4,5-dihydro-2H-pyrazolo[4,3-c]quinolin-8-yl]-acetamide]
Cc1[nH]nc2c1c(=O)n(CCCN)c1ccc(NC(=O)[C@@H]3CCCN3)cc21 [Example 262, Pyrrolidine-2S-carboxylic acid [5-(3-amino-propyl)-3-methyl-4-oxo-4,5-dihydro-2H-pyrazolo[4,3-c]quinolin-8-yl]-amide]
Cc1[nH]nc2c1c(=O)n(CCCN)c1ccc(NC(=O)[C@H]3CCCN3)cc21 [Example 263, Pyrrolidine-2R-carboxylic acid [5-(3-amino-propyl)-3-methyl-4-oxo-4,5-dihydro-2H-pyrazolo[4,3-c]quinolin-8-yl]-amide]
Cc1[nH]nc2c1c(=O)n(CCCN)c1ccc(NC(=O)CN(C)C)cc21 [Example 264, N-[5-(3-aminopropyl)-3-methyl-4-oxo4,5-dihydro-2H-pyrazolo[4,3-c]quinolin-8-yl]-2-dimethylaminoacetamide]
COC(=O)/C(=C/c1ccc2c(c1)c1n[nH]c(C)c1c(=O)n2CCCN)NC(C)=O [Example 270, 2-Acetylamino-3-[5-(3-amino-propyl)-3-methyl-4-oxo-4,5-dihydro-2H-pyrazolo[4,3-c]quinolin-8-yl]-acrylic acid methyl ester]
Cc1[nH]nc2c1c(=O)n(CCCN)c1ccc(C#N)cc21 [Example 271, 5-(3-Amino-propyl)-3-methyl-4-oxo-4,5-dihydro-2H-pyrazolo[4,3-c]quinoline-8-carbonitrile]
